According to the NIST ThermoML archive (doi:10.1016/j.fluid.2014.11.020):
Numbers after ± are expanded uncertainties.

Assay: activity coefficient (dimensionless); of the first substance listed, at infinite dilution; xn = mol fraction of the nth substance listed
Details: Liquid, Chromatography, x1 = 0

Row | SMILES | activity coefficient (323.15 K) | activity coefficient (333.15 K) | activity coefficient (343.15 K)
1 | CCc1ccccc1 [ethylbenzene] + Cn1cc[n+](COCCCOC[n+]2ccn(C)c2)c1.O=S(=O)([N-]S(=O)(=O)C(F)(F)F)C(F)(F)F.O=S(=O)([N-]S(=O)(=O)C(F)(F)F)C(F)(F)F | 2.41 ± 0.16 | 2.44 ± 0.17 | 2.38 ± 0.16
2 | c1ccccc1 [benzene] + CCCOC[n+]1ccn(Cc2ccccc2)c1.O=S(=O)([N-]S(=O)(=O)C(F)(F)F)C(F)(F)F | 0.81 ± 0.05 | 0.71 ± 0.05 | 0.71 ± 0.05
3 | ClC(Cl)(Cl)Cl [tetrachloromethane] + CCCCCCCCn1cc[n+](COCCCOC[n+]2ccn(CCCCCCCC)c2C)c1C.N#C[N-]C#N.N#C[N-]C#N | 1.11 ± 0.07 | 1.12 ± 0.07 | 1.12 ± 0.07
4 | C1COCCO1 [1,4-dioxane] + CCCCCCCCn1cc[n+](COCCCOC[n+]2ccn(CCCCCCCC)c2C)c1C.N#C[N-]C#N.N#C[N-]C#N | 0.55 ± 0.04 | 0.55 ± 0.04 | 0.55 ± 0.04
5 | ClC(Cl)Cl [trichloromethane] + CCCOC[n+]1ccn(C)c1.F[B-](F)(F)F | 1.74 ± 0.12 | 1.8 ± 0.12 | 1.87 ± 0.13
6 | C#CCCCCC [1-heptyne] + CCCCCCCCn1cc[n+](COCCCOC[n+]2ccn(CCCCCCCC)c2C)c1C.O=S(=O)([N-]S(=O)(=O)C(F)(F)F)C(F)(F)F.O=S(=O)([N-]S(=O)(=O)C(F)(F)F)C(F)(F)F | 1.4 ± 0.09 | 1.4 ± 0.09 | 1.41 ± 0.09
7 | CCCCCCC [heptane] + CCCOC[n+]1ccn(Cc2ccccc2)c1.O=S(=O)([N-]S(=O)(=O)C(F)(F)F)C(F)(F)F | 12 ± 0.82 | 10.1 ± 0.69 | 9.58 ± 0.65
8 | CCC(=O)CC [pentan-3-one] + Cn1cc[n+](COCCCOC[n+]2ccn(C)c2)c1.O=S(=O)([N-]S(=O)(=O)C(F)(F)F)C(F)(F)F.O=S(=O)([N-]S(=O)(=O)C(F)(F)F)C(F)(F)F | 0.6 ± 0.04 | 0.63 ± 0.04 | 0.63 ± 0.04
9 | CC(C)OC(C)C [diisopropyl ether] + CCCOC[n+]1ccn(Cc2ccccc2)c1.O=S(=O)([N-]S(=O)(=O)C(F)(F)F)C(F)(F)F | 3 ± 0.2 | 2.87 ± 0.2 | 2.74 ± 0.19
10 | ClC(Cl)(Cl)Cl [tetrachloromethane] + CCCOC[n+]1ccn(Cc2ccccc2)c1.O=S(=O)([N-]S(=O)(=O)C(F)(F)F)C(F)(F)F | 1.87 ± 0.13 | 1.83 ± 0.12 | 1.81 ± 0.12
11 | C1CCCCCC1 [cycloheptane] + CCCCCCCCn1cc[n+](COCCC)c1C.O=S(=O)([N-]S(=O)(=O)C(F)(F)F)C(F)(F)F | 6.43 ± 0.44 | 8.72 ± 0.6 | 11.5 ± 0.78
12 | CC1CCCC1 [methylcyclopentane] + CCCCCCCCn1cc[n+](COCCC)c1C.N#C[N-]C#N | 4.37 ± 0.3 | 4.16 ± 0.28 | 4.16 ± 0.28
13 | Cc1cccc(C)c1 [1,3-dimethylbenzene] + Cn1cc[n+](COCCCOC[n+]2ccn(C)c2)c1.N#C[N-]C#N.N#C[N-]C#N | 10.9 ± 0.75 | 10.7 ± 0.73 | 10.5 ± 0.72
14 | CCCCCCC [heptane] + CCCCCCCCn1cc[n+](COCCCOC[n+]2ccn(CCCCCCCC)c2C)c1C.N#C[N-]C#N.N#C[N-]C#N | 11.6 ± 0.79 | 8.65 ± 0.59 | 8.8 ± 0.6
15 | CCC(=O)CC [pentan-3-one] + CCCOC[n+]1ccc(N(C)C)cc1.O=S(=O)([N-]S(=O)(=O)C(F)(F)F)C(F)(F)F | 0.72 ± 0.05 | 0.75 ± 0.05 | 0.76 ± 0.05
16 | CCCCCCCCCC [decane] + CCCCCCCCn1cc[n+](COCCCOC[n+]2ccn(CCCCCCCC)c2C)c1C.O=S(=O)([N-]S(=O)(=O)C(F)(F)F)C(F)(F)F.O=S(=O)([N-]S(=O)(=O)C(F)(F)F)C(F)(F)F | 9.63 ± 0.66 | 8.73 ± 0.6 | 8.35 ± 0.57
17 | c1ccccc1 [benzene] + CCCCCCCCn1cc[n+](COCCCOC[n+]2ccn(CCCCCCCC)c2C)c1C.O=S(=O)([N-]S(=O)(=O)C(F)(F)F)C(F)(F)F.O=S(=O)([N-]S(=O)(=O)C(F)(F)F)C(F)(F)F | 0.42 ± 0.04 | 0.41 ± 0.03 | 0.41 ± 0.03
18 | Cc1ccccc1 [toluene] + CCCOC[n+]1ccn(C)c1.O=S(=O)([N-]S(=O)(=O)C(F)(F)F)C(F)(F)F | 1.7 ± 0.11 | 1.68 ± 0.11 | 1.69 ± 0.11
19 | CCCCCCCCC [nonane] + CCCOC[n+]1ccn(Cc2ccccc2)c1.N#C[N-]C#N | 110 ± 7.6 | 93.6 ± 6.4 | 76.2 ± 5.2
20 | ClC(Cl)Cl [trichloromethane] + CCCCCCCCn1cc[n+](COCCC)c1C.O=S(=O)([N-]S(=O)(=O)C(F)(F)F)C(F)(F)F | 0.51 ± 0.04 | 0.49 ± 0.04 | 0.53 ± 0.04
21 | CCC[N+](=O)[O-] [1-nitropropane] + CCCOC[n+]1ccn(Cc2ccccc2)c1.O=S(=O)([N-]S(=O)(=O)C(F)(F)F)C(F)(F)F | 0.53 ± 0.04 | 0.46 ± 0.04 | 0.47 ± 0.04
22 | Cc1ccccc1C [1,2-dimethylbenzene] + CCCCCCCCn1cc[n+](COCCC)c1C.O=S(=O)([N-]S(=O)(=O)C(F)(F)F)C(F)(F)F | 0.94 ± 0.06 | 0.94 ± 0.06 | 0.94 ± 0.06

Row | SMILES | activity coefficient (323.15 K) | activity coefficient (333.15 K) | activity coefficient (343.15 K)
23 | CCc1ccccc1 [ethylbenzene] + CCCOC[n+]1ccn(Cc2ccccc2)c1.F[B-](F)(F)F | 4.89 ± 0.33 | 4.71 ± 0.32 | 4.73 ± 0.32
24 | CCCCO [butan-1-ol] + N#C[N-]C#N.N#C[N-]C#N.c1ccc(Cn2cc[n+](COCCCOC[n+]3ccn(Cc4ccccc4)c3)c2)cc1 | 1.8 ± 0.12 | 1.68 ± 0.11 | 1.61 ± 0.11
25 | CCCCCCCCCC [decane] + CCCCCCCCn1cc[n+](COCCC)c1C.N#C[N-]C#N | 17 ± 1.2 | 15.5 ± 1.1 | 14.9 ± 1
26 | C1CCCCC1 [cyclohexane] + CCCCCCCCn1cc[n+](COCCCOC[n+]2ccn(CCCCCCCC)c2C)c1C.O=S(=O)([N-]S(=O)(=O)C(F)(F)F)C(F)(F)F.O=S(=O)([N-]S(=O)(=O)C(F)(F)F)C(F)(F)F | 2.41 ± 0.16 | 2.22 ± 0.15 | 2.11 ± 0.14
27 | CC1CCCC1 [methylcyclopentane] + CCCCCCCCn1cc[n+](COCCCOC[n+]2ccn(CCCCCCCC)c2C)c1C.N#C[N-]C#N.N#C[N-]C#N | 4.75 ± 0.32 | 4.7 ± 0.32 | 4.63 ± 0.32
28 | C[N+](=O)[O-] [nitromethane] + CCCCCCCCn1cc[n+](COCCCOC[n+]2ccn(CCCCCCCC)c2C)c1C.N#C[N-]C#N.N#C[N-]C#N | 0.44 ± 0.04 | 0.43 ± 0.04 | 0.42 ± 0.04
29 | C[N+](=O)[O-] [nitromethane] + CCCCCCCCn1cc[n+](COCCCOC[n+]2ccn(CCCCCCCC)c2C)c1C.O=S(=O)([N-]S(=O)(=O)C(F)(F)F)C(F)(F)F.O=S(=O)([N-]S(=O)(=O)C(F)(F)F)C(F)(F)F | 0.31 ± 0.03 | 0.29 ± 0.03 | 0.47 ± 0.04
30 | c1ccncc1 [pyridine] + CCCOC[n+]1ccn(C)c1.N#C[N-]C#N | 0.91 ± 0.06 | 0.93 ± 0.06 | 0.97 ± 0.06
31 | ClCCl [dichloromethane] + CCCOC[n+]1ccn(Cc2ccccc2)c1.F[B-](F)(F)F | 0.78 ± 0.05 | 0.78 ± 0.05 | 0.79 ± 0.05
32 | CCc1ccccc1 [ethylbenzene] + CCCOC[n+]1ccn(C)c1.O=S(=O)([N-]S(=O)(=O)C(F)(F)F)C(F)(F)F | 2.55 ± 0.17 | 2.51 ± 0.17 | 2.51 ± 0.17
33 | CCC[N+](=O)[O-] [1-nitropropane] + CCCOC[n+]1ccn(Cc2ccccc2)c1.F[B-](F)(F)F | 1.16 ± 0.07 | 1.12 ± 0.07 | 1.14 ± 0.07
34 | ClC(Cl)Cl [trichloromethane] + CCCCCCCCn1cc[n+](COCCC)c1C.N#C[N-]C#N | 0.27 ± 0.03 | 0.3 ± 0.03 | 0.33 ± 0.03
35 | CCCO [propan-1-ol] + Cn1cc[n+](COCCCOC[n+]2ccn(C)c2)c1.N#C[N-]C#N.N#C[N-]C#N | 1.22 ± 0.08 | 1.17 ± 0.07 | 1.1 ± 0.07
36 | CCCCCCCCCCCCCC [tetradecane] + CCCOC[n+]1ccn(C)c1.F[B-](F)(F)F | 2700 ± 190 | 2500 ± 170 | 2300 ± 160
37 | CC(C)CO [2-methyl-1-propanol] + CCCOC[n+]1ccn(C)c1.N#C[N-]C#N | 1.29 ± 0.08 | 1.25 ± 0.08 | 1.21 ± 0.08
38 | C[N+](=O)[O-] [nitromethane] + CCCOC[n+]1ccn(C)c1.F[B-](F)(F)F | 0.65 ± 0.04 | 0.66 ± 0.05 | 0.67 ± 0.05
39 | c1ccccc1 [benzene] + CCCOC[n+]1ccn(Cc2ccccc2)c1.N#C[N-]C#N | 1.51 ± 0.1 | 1.5 ± 0.1 | 1.5 ± 0.1
40 | CCCCCCCCC [nonane] + CCCOC[n+]1ccn(C)c1.O=S(=O)([N-]S(=O)(=O)C(F)(F)F)C(F)(F)F | 52.4 ± 3.6 | 45.9 ± 3.1 | 40.5 ± 2.8
41 | C1CCCCC1 [cyclohexane] + Cn1cc[n+](COCCCOC[n+]2ccn(C)c2)c1.O=S(=O)([N-]S(=O)(=O)C(F)(F)F)C(F)(F)F.O=S(=O)([N-]S(=O)(=O)C(F)(F)F)C(F)(F)F | 17.6 ± 1.2 | 12.4 ± 0.85 | 
42 | CCC(=O)CC [pentan-3-one] + CCCCCCCCn1cc[n+](COCCC)c1C.O=S(=O)([N-]S(=O)(=O)C(F)(F)F)C(F)(F)F | 0.45 ± 0.04 | 0.45 ± 0.04 | 0.47 ± 0.04
43 | CCCCCCC [heptane] + CN(C)c1cc[n+](COCCCOC[n+]2ccc(N(C)C)cc2)cc1.O=S(=O)([N-]S(=O)(=O)C(F)(F)F)C(F)(F)F.O=S(=O)([N-]S(=O)(=O)C(F)(F)F)C(F)(F)F | 28.9 ± 2 | 23.3 ± 1.6 | 24.3 ± 1.7
